The values that follow come from PubChem BioAssay AID328 (DTP/NCI, 2004).

The subject of the experiment is BDF1 mice, P388 leukemia ip, median survival T/C. The experiment in a line: NCI In Vivo Anticancer Drug Screen. Data for tumor model P388 Leukemia (intraperitoneal) in B6D2F1 (BDF1) mice. As to conditions: endpoint: median survival time, higher = longer survival. In a few lines: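 Reported as T/C, where T is the survival measurement in dosed animals and C the same measurement in vehicle controls.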

Setting [1] is: dose: 50.0 mg/kg/injection, schedule: Q01DX009 (ip), vehicle: saline with Tween-80.
[2] abbreviates: dose: 100.0 mg/kg/injection, schedule: Q01DX009 (ip), vehicle: saline with Tween-80.
[3] abbreviates: dose: 200.0 mg/kg/injection, schedule: Q01DX009 (ip), vehicle: saline with Tween-80.

“And” between values parts separate entries of the source, which are not always exact repeats. Identical values can stand only once. Toxic doses and inconclusive results are not listed.

For `Cn1c2nc(=O)n(-c3ccccc3)c(=O)c-2nc2ccccc21`, the T/C runs as follows: (dose: 12.5 mg/kg/injection, schedule: Q01DX009 (ip), vehicle: saline with Tween-80) 95 % of control; (dose: 25.0 mg/kg/injection, schedule: Q01DX009 (ip), vehicle: saline with Tween-80) 104 % of control; under setting [1], 91 % of control and 95 % of control.

`OCc1ccc(Cl)c(Cl)c1`: the T/C runs as follows: (dose: 100.0 mg/kg/injection, schedule: Q04DX003 (ip), vehicle: other) 104 % of control; (dose: 200.0 mg/kg/injection, schedule: Q04DX003 (ip), vehicle: other) 104 % of control; (dose: 400.0 mg/kg/injection, schedule: Q04DX003 (ip), vehicle: other) 100 % of control.

On to `Cc1ccc(-c2c(O)c(Br)c(-c3ccc(C)cc3C)c(O)c2Br)c(C)c1`, for which the T/C under setting [2] was 100 % of control; the T/C under setting [3] was 100 % of control; the T/C (dose: 400.0 mg/kg/injection, schedule: Q01DX009 (ip), vehicle: saline with Tween-80) was 100 % of control.

For the compound `CS(=O)(=O)OCC(O)C(O)C(O)C(O)COS(C)(=O)=O` (stereo not given), the T/C (dose: 25.0 mg/kg/injection, schedule: Q01DX010 (ip), vehicle: saline) is 108 % of control and the T/C (dose: 50.0 mg/kg/injection, schedule: Q01DX010 (ip), vehicle: saline) is 116 % of control.

Consider `C[C@]12CC[C@@H]3c4ccc(OC5CCCCO5)cc4CC[C@H]3[C@@H]1CC[C@@H]2O` (stereo not given in full), for which the T/C is, setting by setting: (dose: 100.0 mg/kg/injection, schedule: Q01DX009 (ip), vehicle: saline) 105 % of control; (dose: 100.0 mg/kg/injection, schedule: Q04DX003 (ip), vehicle: saline) 100 % of control; (dose: 200.0 mg/kg/injection, schedule: Q01DX009 (ip), vehicle: saline) 95 % of control; (dose: 200.0 mg/kg/injection, schedule: Q04DX003 (ip), vehicle: saline) 100 % of control; (dose: 400.0 mg/kg/injection, schedule: Q04DX003 (ip), vehicle: saline) 100 % of control.

Regarding `c1ccc2c(c1)nnn2OC1CCCC1`, the T/C by setting is: under setting [1], 106 % of control; under setting [2], 116 % of control; under setting [3], 119 % of control.

With `O=C1OCCC1C(=O)C(O)(C(F)(F)F)C(F)(F)F` (stereo not given), the T/C is 90 % of control (dose: 100.0 mg/kg/injection, schedule: Q01DX001 (ip), vehicle: other); 90 % of control (dose: 200.0 mg/kg/injection, schedule: Q01DX001 (ip), vehicle: other); 100 % of control (dose: 400.0 mg/kg/injection, schedule: Q01DX001 (ip), vehicle: other).

On to `C=C(C)C12OC3(c4ccccc4)OC1C1C4OC4(CO)C(O)C4(O)C(=O)C(C)=CC4C1(O3)C(C)C2OC(=O)/C=C/C=C/c1ccccc1` (stereo not given), for which the T/C (dose: 0.01 mg/kg/injection, schedule: Q01DX009 (ip), vehicle: saline + alcohol) is 115 % of control; the T/C (dose: 0.02 mg/kg/injection, schedule: Q01DX009 (ip), vehicle: saline + alcohol) is 94 % of control; the T/C (dose: 0.03 mg/kg/injection, schedule: Q01DX009 (ip), vehicle: saline + alcohol) is 123 % of control; the T/C (dose: 0.5 mg/kg/injection, schedule: Q01DX009 (ip), vehicle: saline + alcohol) is 156 % of control; the T/C (dose: 3.1 micrograms/kg/injection, schedule: Q01DX009 (ip), vehicle: saline + alcohol) was 123 % of control; the T/C (dose: 6.0 micrograms/kg/injection, schedule: Q01DX009 (ip), vehicle: saline + alcohol) is 101 % of control. The T/C was 104 % of control (dose: 6.3 micrograms/kg/injection, schedule: Q01DX009 (ip), vehicle: saline + alcohol); 123 % of control (dose: 12.5 micrograms/kg/injection, schedule: Q01DX009 (ip), vehicle: saline + alcohol); 121 % of control (dose: 25.0 micrograms/kg/injection, schedule: Q01DX009 (ip), vehicle: gum acacia); 124 % of control (dose: 25.0 micrograms/kg/injection, schedule: Q01DX009 (ip), vehicle: saline + alcohol); 200 % of control (dose: 25.0 micrograms/kg/injection, schedule: Q01DX009 (ip), vehicle: saline with Tween-80); 90 % of control (dose: 50.0 micrograms/kg/injection, schedule: Q01DX009 (ip), vehicle: gum acacia). For the same compound, the T/C (dose: 50.0 micrograms/kg/injection, schedule: Q01DX009 (ip), vehicle: saline + alcohol) is 155 % of control; the T/C (dose: 50.0 micrograms/kg/injection, schedule: Q01DX009 (ip), vehicle: saline with Tween-80) was 92 % of control; the T/C (dose: 100.0 micrograms/kg/injection, schedule: Q01DX009 (ip), vehicle: saline with Tween-80) was 88 % of control.

For the compound `OC1CCC2(CC1)SCCS2`, the T/C by setting is: (dose: 100.0 mg/kg/injection, schedule: Q01DX001 (ip), vehicle: saline with Tween-80) 96 % of control; (dose: 200.0 mg/kg/injection, schedule: Q01DX001 (ip), vehicle: saline with Tween-80) 103 % of control; (dose: 400.0 mg/kg/injection, schedule: Q01DX001 (ip), vehicle: saline with Tween-80) 101 % of control.

Take `CSc1nnc([N+](=O)[O-])s1`: the T/C (dose: 1.56 mg/kg/injection, schedule: Q01DX009 (ip), vehicle: Klucel (hydroxypropylcellulose) (HPC)) is 110 % of control; the T/C (dose: 3.12 mg/kg/injection, schedule: Q01DX009 (ip), vehicle: Klucel (hydroxypropylcellulose) (HPC)) was 100 % of control; the T/C (dose: 6.25 mg/kg/injection, schedule: Q01DX009 (ip), vehicle: Klucel (hydroxypropylcellulose) (HPC)) is 110 % of control.

As for `CCCCOC(=S)Nc1ccccc1`, the T/C was 100 % of control (dose: 50.0 mg/kg/injection, schedule: Q01DX009 (ip), vehicle: other) and 99 % of control (dose: 100.0 mg/kg/injection, schedule: Q01DX009 (ip), vehicle: other).

Take `Cc1c2cc3c(c1O)C(=O)CC(O3)c1ccc(O)c(c1)-c1ccc(O)c(c1)C(=O)OCC1OC(O2)C(O)C(O)C1O` (stereo not given): the T/C was 109 % of control (dose: 0.13 mg/kg/injection, schedule: Q01DX009 (ip), vehicle: Klucel (hydroxypropylcellulose) (HPC)); 106 % of control (dose: 0.25 mg/kg/injection, schedule: Q01DX009 (ip), vehicle: Klucel (hydroxypropylcellulose) (HPC)); 112 % of control (dose: 0.5 mg/kg/injection, schedule: Q01DX009 (ip), vehicle: Klucel (hydroxypropylcellulose) (HPC)); 112 % of control (dose: 1.0 mg/kg/injection, schedule: Q01DX009 (ip), vehicle: Klucel (hydroxypropylcellulose) (HPC)).

For the compound `CC1(C)N=C(N)N=C(N)N1c1ccc(OCC(=O)N2CCOCC2)cc1`, the T/C by setting is: (dose: 25.0 mg/kg/injection, schedule: Q01DX009 (ip), vehicle: saline) 113 % of control; (dose: 50.0 mg/kg/injection, schedule: Q01DX009 (ip), vehicle: saline) 113 % of control.

Regarding `CCOc1nc(=O)n(C2CCOC2=O)cc1F` (stereo not given), the T/C is 100 % of control (dose: 100.0 mg/kg/injection, schedule: Q01DX001 (ip), vehicle: Klucel (hydroxypropylcellulose) (HPC)); 100 % of control (dose: 200.0 mg/kg/injection, schedule: Q01DX001 (ip), vehicle: Klucel (hydroxypropylcellulose) (HPC)); 104 % of control (dose: 400.0 mg/kg/injection, schedule: Q01DX001 (ip), vehicle: Klucel (hydroxypropylcellulose) (HPC)).

Regarding `CC1SC(N)=NC1=O` (stereo not given), the T/C is 100 % of control (dose: 100.0 mg/kg/injection, schedule: Q01DX009 (ip), vehicle: Klucel (hydroxypropylcellulose) (HPC)); 109 % of control (dose: 100.0 mg/kg/injection, schedule: Q04DX003 (ip), vehicle: Klucel (hydroxypropylcellulose) (HPC)); 109 % of control (dose: 200.0 mg/kg/injection, schedule: Q01DX009 (ip), vehicle: Klucel (hydroxypropylcellulose) (HPC)); 86 % of control (dose: 200.0 mg/kg/injection, schedule: Q04DX003 (ip), vehicle: Klucel (hydroxypropylcellulose) (HPC)); 100 % of control (dose: 400.0 mg/kg/injection, schedule: Q01DX009 (ip), vehicle: Klucel (hydroxypropylcellulose) (HPC)); 109 % of control (dose: 400.0 mg/kg/injection, schedule: Q04DX003 (ip), vehicle: Klucel (hydroxypropylcellulose) (HPC)).
